Like-named read-outs stand apart in the source and are kept apart here.
Columns and labels:
Type in all cases: cell-based
[1] = tested on: THP-1 cells; assay: Onset and recovery of inhibition; settings: for effect on lectin binding (FIG. 5): AAL or AOL lectin; for inhibition at 100 µM: Homo sapiens, 72 h, read-out: inhibition of fucosylation after 3 days
Experimental: Cells were cultured in medium containing different concentrations of unnatural sugar derivatives on 96-wells plates (suspension cell lines; 13,000-20,000 cells per well) (Thermo Scientific). DMSO, at same dilution as the unnatural sugar derivative stock solutions, was used as a positive control for lectin staining; P-Fuc2F was used for all concentrations as negative control. Cells were incubated for eight days at 37° C. and 5% CO2 in a humidified incubator. Medium was changed after three and six days of incubation with cell culture medium without unnatural sugar derivatives. Every day cells were harvested and washed with 100 μl 1× CF-blocking buffer (Vector Laboratories Inc.) containing 1 mM CaCl2) and 1 mM MgCl2. The cells were then resuspended in 50 μl 0.5 μg/ml of either 0.5 ng/ml biotinylated AAL, AOL, SNA, MAL-II, WGA, LCA, PSA, PNA, PHA-L or GSL-1 lectin in 1× carbo-free blocking buffer or with 50 μl of non-supplemented 1× carbo-free blocking buffer and incubated at 4-8° C. for 45-60 min. Cells were washed with 3×100 μl PBA (PBS containing 1% v/v FBS and 0.1% w/w sodium azide), incubated with 40 μl 1 μg/ml Streptavidin-phycoerythrin conjugate (Invitrogen, eBioscience) in PBA for 10-15 min at 4-8° C. Cells were then washed again with 3×100 μl PBA, resuspended in PBA and fluorescence was measured with a flow cytometer (Beckman & Dickinson FACS-Calibur). Each replicate for each condition with >10,000 gated events. Data was processed using FlowJo (FlowJo LLC). Percentage of lectin binding was obtained by normalizing the MFI values to the MFI values of the respective DMSO control.
The onset of inhibition and duration for recovery was evaluated on THP-1 cells with 100 and 10 μM compound using the AAL lectin (FIG. 5). At 100 μM concentration compounds 9 and 10 inhibit fucosylation after 1 day and to over 50% after 3 days. Fucosylation was fully recovered to normal 5 levels on day 6. […] Similar results were obtained using the AOL lectin.

[2] = tested on: EL4 cells; assay: Lectin staining for fucose expression inhibition, EL4 cells; settings: 3 days, 0-512 μM compound, flow cytometry
Experimental: (§1) THP-1 cells (TIB-202, ATCC) and Jurkat cells (TIB-152, ATCC) were cultured in RPMI-1640 medium containing 2 mM Glutamine and 25 mM HEPES (Gibco™, Life Technologies), supplemented with 10% v/v heat-inactivated fetal bovine serum (FBS) (Gibco™, Life Technologies) and 1× antibiotic-antimycotic solution (100 units/mL of penicillin, 100 μg/mL of streptomycin, and 0.25 μg/mL Fungizone) (Gibco™, Life Technologies) and passaged every 3-4 day by seeding a fraction of 0.5-2 min cells of the culture per 10 ml medium. EL-4 cells (TIB-39, ATCC) were cultured in DMEM medium (Gibco™, Life Technologies), supplemented with 10% v/v heat-inactivated fetal bovine serum (FBS) (Gibco™, Life Technologies), 1× antibiotic-antimycotic solution (100 units/mL of penicillin, 100 μg/mL of streptomycin, and 0.25 μg/mL Fungizone) (Gibco™, Life Technologies) and 2 mM Glutamine (Gibco™, Life Technologies) and passaged every 2-4 days by seeding a fraction of 0.5-1 min cells of the culture per 10 ml medium. For passaging a T75 flask (Corning), medium was removed and the monolayer was washed with 10 ml PBS pH 7.2 without CaCl2) and MgCl2 (Gibco™, Life Technologies) before adding 3.5 ml 0.05% trypsin/EDTA solution (Gibco™ 5 Life Technologies) in PBS. Cells were incubated at rt for 30-45 s after which the trypsin/EDTA-solution was removed. Cells were incubated for an additional 2 min at 37° C., 5.0% CO2 and resuspended in cell culture medium. Cells were then seeded at ˜40.000 cells/cm^2 in new culture flasks. All cells were cultured at 37° C., 5% CO2 in a humidified incubator.
(§2) Protocol below was repeated until n>=3 for each compounds using cells at different passage numbers. Cells were cultured in medium containing different concentrations of unnatural sugar derivatives on either 24-wells plates (adherent cell lines; 80,000 cells per well) (Corning) or 96-wells plates (suspension cell lines; 13,000-20,000 cells per well) (Thermo Scientific). DMSO, at same dilution as the unnatural sugar derivative stock solutions, was used as a positive control for lectin staining; P-Fuc2F was used for all concentrations as negative control. Cells were incubated for three days at 37° C. and 5% CO2 in a humidified incubator. Cells were harvested and washed with 100 μl 1×CF-blocking buffer (Vector Laboratories Inc.) containing 1 mM CaCl2) and 1 mM MgCl2. The cells were then resuspended in 50 μl 0.5 μg/ml of 0.5 ng/ml biotinylated lectin in 1× carbo-free blocking buffer and incubated at 4-8° C. for 45-60 min. Cells were washed with 3×100 μl PBA (PBS containing 1% v/v FBS and 0.1% w/w sodium azide), incubated with 40 μl 1 μg/ml Streptavidin-phycoerythrin conjugate (Invitrogen, eBioscience) in PBA for 10-15 min at 4-8° C. Cells were then washed again with 3×100 μl PBA, resuspended in PBA and fluorescence was measured with a flow cytometer (Beckman & Dickinson FACS-Calibur). Each replicate for each condition with >10,000 gated events. Data was processed using FlowJo (FlowJo LLC). Percentage of lectin binding was obtained by normalizing the MFI values to the MFI values of the respective DMSO control.
(§3) Three cell lines (THP-1, Jurkat, EL4) were cultured for 3 days with 0-512 μM compound. The cells were stained with two fucose specific lectins (AAL & AOL) and analysed by flow cytometry, presented as mean percentage lectin binding normalized to control (n=3).

[3] = tested on: THP-1 cells; assay: Lectin staining for fucose expression inhibition, THP-1 cells; settings: 3 days, 0-512 μM compound, flow cytometry
Experimental: as §1, §2, §3

[4] = tested on: Jurkat cells; assay: Lectin staining for fucose expression inhibition, Jurkat cells; settings: 3 days, 0-512 μM compound, flow cytometry
Experimental: as §1, §2, §3

[5] = tested on: THP-1 cells; assay: Lectin specificity: total cell surface glycosylation with additional lectins; settings: 100 μM and 10 μM, three days; for LCA and PSA lectin binding: lectins restricted to α1,6-linked core fucosylation
Experimental: Protocol below was repeated until n>=3 for each compounds using cells at different passage numbers. Culture medium was prepared in 96-wells plates (Thermo Scientific). For every unnatural sugar derivative, 11 wells containing 100 μM of unnatural sugar derivatives and 11 wells containing 10 μM of the unnatural sugar derivatives were prepared. DMSO, at same dilution as the tested probes, was used as a positive control for lectin staining. THP-1 Cells were cultured in the plates (20,000 cells per well) and the cells were incubated for three days at 37° C. and 5% CO2. Cells were harvested and washed with 100 μl 1×CF-blocking buffer (Vector Laboratories Inc.) containing 1 mM CaCl2) and 1 mM MgCl2. The cells were then resuspended in 50 μl 0.5 μg/ml of either 0.5 ng/ml biotinylated AAL, AOL, SNA, MAL-II, WGA, LCA, PSA, PNA, PHA-L or GSL-1 lectin in 1× carbo-free blocking buffer or with 50 μl of non-supplemented 1× carbo-free blocking buffer and incubated at 4-8° C. for 45-60 min. Cells were washed with 3×100 μl PBA (PBS containing 1% v/v FBS and 0.1% w/w sodium azide), incubated with 40 μl 1 μg/ml Streptavidin-phycoerythrin conjugate (Invitrogen, eBioscience) in PBA for 10-15 min at 4-8° C. Cells were then washed again with 3×100 μl PBA, resuspended in PBA and fluorescence was measured with a flow cytometer (Beckman & Dickinson FACS-Calibur). Each replicate for each condition with >10,000 gated events. Data was processed using FlowJo (FlowJo LLC). Percentage of lectin binding was obtained by normalizing the MFI values to the MFI values of the respective DMSO control.
Compounds 9 & 10 are mannose-1-phosphate derivatives, so other glycosylation pathways such as mannosylation could be imagined to be affected. Having established the ability to inhibit cellular fucosylation with AAL and AOL lectins, the effect on total cell surface glycosylation was evaluated using additional lectins (FIG. 4A and FIG. 4B). N-glycans consist of a biantennary mannose containing backbone, recognized by WGA, and can be branched recognized by L-Pha. These branches can be terminated with galactose, recognized by PNA, or α2,6- and α2,3-linked sialic acids recognized by SNA and MAL-II, respectively. […] The decrease in binding for these lectins can thus be attributed to defucosylation as confirmed by a decrease in AAL and AOL binding and no effect on WGA binding.

[6] = Mus musculus, 72 h, AAL lectin, n=3, read-out: EC50 for fucose expression inhibition, EL4 AAL
[7] = Mus musculus, 72 h, AOL lectin, n=3, read-out: EC50 for fucose expression inhibition, EL4 AOL
[8] = Homo sapiens, 72 h, AAL lectin, n=3, read-out: EC50 for fucose expression inhibition, THP-1 AAL
[9] = Homo sapiens, 72 h, AOL lectin, n=3, read-out: EC50 for fucose expression inhibition, THP-1 AOL
[10] = Homo sapiens, 72 h, AAL lectin, n=3, read-out: EC50 for fucose expression inhibition, Jurkat AAL
[11] = Homo sapiens, 72 h, AOL lectin, n=3, read-out: EC50 for fucose expression inhibition, Jurkat AOL

**Q.** Which results are given for CC(=O)OCC1O[C@H](OP(=O)(OCCSC(C)=O)OCCSC(C)=O)C(OC(C)=O)C(OC(C)=O)[C@@H]1OC(C)=O (stereo partly drawn) [P-D-Man-1P (6), Di-(S-acetyl-2-thioethyl)-(2,3,4,6-tetra-O-acetyl-α-D-mannopyranoside) phosphate]?
**A.** effect on lectin binding (FIG. 5) ([1]; 100 μM): no effect; EC50 [2, 6]: > 500 µM; EC50 [2, 7]: > 500 µM; EC50 [3, 8]: > 500 µM; EC50 [3, 9]: > 500 µM; EC50 [4, 10]: > 500 µM; EC50 [4, 11]: > 500 µM

**Q.** Which results are given for CC(=O)OC1C(OC(C)=O)[C@H](OC(C)=O)C(C(F)F)O[C@@H]1OP(=O)(OCCSC(C)=O)OCCSC(C)=O (stereo partly drawn) [P-D-Rha6F2-1P (9), Di-(S-acetyl-2-thioethyl)-(2,3,4-tri-O-acetyl-6,6-difluoro-α-D-rhamnopyranoside) phosphate]?
**A.** onset of fucosylation inhibition ([1]; 100 μM, AAL lectin): 1 days; inhibition at 100 µM ([1]; 100 μM, AAL lectin): > 50%; EC50 [2, 6]: 14.2 µM; EC50 [2, 7]: 38.2 µM; EC50 [3, 8]: 1.97 µM; EC50 [3, 9]: 5.26 µM; EC50 [4, 10]: 5.93 µM; EC50 [4, 11]: 4.1 µM; effect on binding of WGA, L-Pha, PNA, SNA and MAL-II lectins [5]: No significant effect; LCA and PSA lectin binding [5]: decreased binding

**Q.** What does the source list for CC(=O)OC1C(OC(C)=O)[C@H](OC(C)=O)C(C(F)(F)F)O[C@@H]1OP(=O)(OCCSC(C)=O)OCCSC(C)=O (stereo partly drawn) [P-D-Rha6F3-1P (10), Di-(S-acetyl-2-thioethyl)-(2,3,4-tri-O-acetyl-6,6,6-trifluoro-α-D-mannopyranoside) phosphate]?
**A.** onset of fucosylation inhibition ([1]; 100 μM, AAL lectin): 1 days; inhibition at 100 µM ([1]; 100 μM, AAL lectin): > 50%; EC50 [2, 6]: > 500 µM; EC50 [2, 7]: > 500 µM; EC50 [3, 8]: 0.608 µM; EC50 [3, 9]: 0.454 µM; EC50 [4, 10]: 27.7 µM; EC50 [4, 11]: 12.8 µM; effect on binding of WGA, L-Pha, PNA, SNA and MAL-II lectins [5]: No significant effect; LCA and PSA lectin binding [5]: decreased binding

**Q.** Which EC50 [2, 6] does the source give for CC(=O)OC1C(OC(C)=O)[C@H](OC(C)=O)C(CF)O[C@@H]1OP(=O)(OCCSC(C)=O)OCCSC(C)=O (stereo partly drawn) [P-D-Rha6F-1P (8), Di-(S-acetyl-2-thioethyl)-(2,3,4-tri-O-acetyl-6-fluoro-α-D-rhamnopyranoside) phosphate] here?
**A.** > 500 µM

**Q.** What about the EC50 [2, 7] of the same molecule?
**A.** > 500 µM

**Q.** And the EC50 [3, 8]?
**A.** 267 µM

**Q.** What about the EC50 [3, 9] of the same molecule?
**A.** 84.4 µM

**Q.** And the EC50 [4, 10]?
**A.** 174 µM

**Q.** What about the EC50 [4, 11] of the same molecule?
**A.** 345 µM

**Q.** For CC(=O)OC1C(OC(C)=O)[C@H](OC(C)=O)C(C)O[C@@H]1OP(=O)(OCCSC(C)=O)OCCSC(C)=O (stereo partly drawn) [P-D-Rha-1P (7), Di-(S-acetyl-2-thioethyl)-(2,3,4-tri-O-acetyl-α-D-rhamnopyranoside) phosphate], which EC50 [2, 6] is on record?
**A.** > 500 µM

**Q.** What about the EC50 [2, 7] of the same molecule?
**A.** > 500 µM

**Q.** And the EC50 [3, 8]?
**A.** > 500 µM

**Q.** And the EC50 [3, 9]?
**A.** 137 µM

**Q.** And the EC50 [4, 10]?
**A.** > 500 µM

**Q.** And the EC50 [4, 11]?
**A.** 153 µM

**Q.** For CC(=O)OC1O[C@@H](C)[C@@H](OC(C)=O)[C@@H](OC(C)=O)[C@@H]1F (some centres unmarked) [P-Fuc2Feq, reference compound], which “inhibition of fucosylation at 10 μM” value ([1]; 10 μM, AAL lectin) is on record?
**A.** no inhibition

**Q.** And the “effect on lectin binding (FIG. 5)” value ([1]; 10 μM)?
**A.** no longer discernible

**Q.** And the EC50 ([2]; AAL lectin, n=3, read-out: EC50 for fucose expression inhibition, EL4 AAL)?
**A.** > 500 µM

**Q.** What about the EC50 ([2]; AOL lectin, n=3, read-out: EC50 for fucose expression inhibition, EL4 AOL) of the same molecule?
**A.** > 500 µM

**Q.** And the EC50 ([3]; AAL lectin, n=3, read-out: EC50 for fucose expression inhibition, THP-1 AAL)?
**A.** 44.9 µM

**Q.** What about the EC50 ([3]; AOL lectin, n=3, read-out: EC50 for fucose expression inhibition, THP-1 AOL) of the same molecule?
**A.** 30.7 µM

**Q.** And the EC50 ([4]; AAL lectin, n=3, read-out: EC50 for fucose expression inhibition, Jurkat AAL)?
**A.** 115 µM

**Q.** And the EC50 ([4]; AOL lectin, n=3, read-out: EC50 for fucose expression inhibition, Jurkat AOL)?
**A.** 121 µM

From patent US12606585B2, “Fluorinated hexoses” (Stichting Radboud Universiteit, priority 2020, dated 2026)
